Measurements reported in patent US9340493B2, “Hydroxamic acid derivatives useful as antibacterial agents” (Pfizer Inc., priority 2008, dated 2016).
Values after ≈ are worked out from the molar mass of the structure shown.

Columns and labels:
P. aeruginosa UI-18 = assay: MIC determination, P. aeruginosa UI-18; format: cell-based; conditions: Pseudomonas aeruginosa, UI18; wild-type; * = arithmetic mean of 2-6 MIC determinations; read-out: MIC (ug/mL) P. aeruginosa UI-18
Experimental: (§1) MIC determinations: The in vitro antibacterial activity of compounds described in the Examples was evaluated by minimum inhibitory concentration (MIC) testing according to Clinical and Laboratory Standards Institute (CLSI, formerly NCCLS) guidelines. See: Clinical and Laboratory Standards Institute. Methods for Dilution Antimicrobial Susceptibility Tests for Bacteria that Grow Aerobically; Approved Standard-Seventh Edition. CLSI document M7-A7 [ISBN 1-56238-587-9]. Clinical and Laboratory Standards Institute, 940 West Valley Road, Suite 1400, Wayne, Pa. 19087-1898 USA, 2006; also Clinical and Laboratory Standards Institute. Performance Standards for Antimicrobial Susceptibility Testing; Eighteenth Informational Supplement. CLSI document M100-S18 [ISBN1-56238-653-0]. Clinical and Laboratory Standards Institute.
(§2) The following bacterial strains were used:
P. aeruginosa UI-18: Wild-type;

[1] = molecular target: T1, Pseudomonas aeruginosa LpxC enzyme (Pseudomonas aeruginosa, UniProt P47205); assay: IC50 assay, LpxC enzyme from P. aeruginosa; format: biochemical; conditions: 0.5 nM enzyme, 25° C., pH 8.0, 20 min; ** = average of 2-8 assays
T1 construct: made in house; host or cells: E. coli
T1 sequence (P47205 1-303): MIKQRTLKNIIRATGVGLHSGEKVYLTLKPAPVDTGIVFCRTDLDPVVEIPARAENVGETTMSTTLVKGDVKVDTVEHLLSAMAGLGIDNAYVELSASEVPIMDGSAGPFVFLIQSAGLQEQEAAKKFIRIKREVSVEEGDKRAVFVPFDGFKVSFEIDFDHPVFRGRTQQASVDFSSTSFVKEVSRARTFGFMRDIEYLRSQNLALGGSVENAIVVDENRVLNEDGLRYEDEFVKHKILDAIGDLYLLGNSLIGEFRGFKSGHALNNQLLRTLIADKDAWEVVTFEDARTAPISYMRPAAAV
Experimental: IC50 assay, LpxC enzyme from P. aeruginosa: IC50 determination in the LpxC enzyme assay was carried out in a similar manner to that described by S. A. Hyland et al., J. Bacteriology 1997, 179, 2029-2037. [See also T. Kline et al., J. Medicinal Chemistry 2002, 45, 3112-3129.] Briefly, Pseudomonas aeruginosa LpxC enzyme (0.5 nM) purified from E. coli-overexpressing bacteria was incubated at 25° C. in a final volume of 25 ul containing 0.5 uM UDP-3-O—(R-3-hydroxydecanoyl)-N—[^3H-acetyl]glucosamine (B. D. Maxwell and J. C. Bronstein, J. Labeled Compounds and Radiopharmaceuticals 2005, 48, 1049-1054), 1 mg/ml BSA, and 50 mM sodium phosphate buffer, pH 8.0 in the presence and absence of inhibitor compound. At the end of 20 min, 90 ul of a pre-mixed 3% suspension of activated charcoal in 100 mM sodium acetate, pH 7.5, was added to stop the enzyme reaction. The contents of the well were transferred to a filter plate and filtered, and an aliquot of the filtrate was quantitated by liquid scintillation spectrometry. A no-enzyme control was subtracted in order to eliminate background counts.

P. aeruginosa PAO280 = assay: MIC determination, P. aeruginosa PAO280; format: cell-based; conditions: Pseudomonas aeruginosa, PAO280, read-out: MIC (ug/mL) P. aeruginosa PAO280
Experimental: as §1, §2
Pseudomonas aeruginosa PA0280: lacks efflux pumps MexAB-oprM, MexXY and MexZ

[2] = test system: Staphylococcus aureus ATCC 29213; assay: MIC determination, S. aureus ATCC 29213; format: cell-based; conditions: ATCC29213, CLSI quality control reference strain, * = arithmetic mean of 2-6 MIC determinations, read-out: MIC (ug/mL) S. aureus ATCC 29213
Experimental: as §1, §2
Staphylococcus aureus ATCC 29213: CLSI quality control reference strain; and […]

Enterobacter aerogenes = assay: MIC determination, E. aerogenes; format: cell-based; conditions: Klebsiella aerogenes; quinolone-resistant, ESBL-expressing clinical isolate; * = arithmetic mean of 2-6 MIC determinations; read-out: MIC (ug/mL) E. aerogenes
Experimental: as §1, §2
Enterobacter aerogenes: Quinolone-resistant isolate, expresses extended-spectrum beta-lactamases (ESBL), clinical isolate;

[3] = test system: Acinetobacter baumanii/haemolyticus; assay: MIC determination, A. baumanii/haemolyticus; format: cell-based; conditions: Acinetobacter baumannii; multidrug-resistant clinical isolate; * = arithmetic mean of 2-6 MIC determinations; read-out: MIC (ug/mL) A. baumanii/haemolyticus
Experimental: as §1, §2
Acinetobacter baumanii/haemolyticus: Multidrug-resistant clinical isolate;

Escherichia coli EC-1 = assay: MIC determination, E. coli EC-1; format: cell-based; conditions: EC1, EC-1: VOGEL, * = arithmetic mean of 2-6 MIC determinations, read-out: MIC (ug/mL) E. coli EC-1
Experimental: as §1, §2
Escherichia coli EC-1: VOGEL;

Klebsiella pneumoniae = assay: MIC determination, K. pneumoniae; format: cell-based; conditions: ciprofloxacin-resistant, ESBL-expressing clinical isolate, * = arithmetic mean of 2-6 MIC determinations, read-out: MIC (ug/mL) K. pneumoniae
Experimental: as §1, §2
Klebsiella pneumoniae: Ciprofloxacin-resistant isolate, expresses extended-spectrum beta-lactamases (ESBL), clinical isolate;

| SMILES | MIC (P. aeruginosa UI-18) [µg/mL] | IC50 [1] [µM] | MIC (P. aeruginosa PAO280) [µg/mL] | MIC [2] [µg/mL] | MIC (Enterobacter aerogenes) [µg/mL] | MIC [3] [µg/mL] | MIC (Escherichia coli EC-1) [µg/mL] | MIC (Klebsiella pneumoniae) [µg/mL] |
| --- | --- | --- | --- | --- | --- | --- | --- | --- |
| CC(OCc1ccc(-c2ccccc2)cc1)(C(=O)NO)C(=O)NCC1(O)CCCC1 (centres unmarked) [Example 68, 2-(biphenyl-4-ylmethoxy)-N-hydroxy-N′-[(1-hydroxycyclopentyl)methyl]-2-methylmalonamide] | > 64 | 0.0955 | 4 (≈ 9.7 µM) | > 64 | – | – | – | – |
| CC(OCc1ccc(-c2ccccc2)cc1)(C(=O)NO)C(=O)NCCc1cscn1 (centres unmarked) [Example 76, 2-(biphenyl-4-ylmethoxy)-N-hydroxy-2-methyl-N′-[2-(1,3-thiazol-4-yl)ethyl]malonamide] | 64 (≈ 150 µM) | 0.00848 | 0.5 (≈ 1.18 µM) | > 64 | – | – | – | – |
| C[C@@](OCc1ccc(-c2ccccc2)cc1)(C(=O)NO)[C@@H](O)c1cc(COP(=O)(O)O)on1 [Example 47, trisodium {3-[(1S,2S)-2-(biphenyl-4-ylmethoxy)-1-hydroxy-2-methyl-3-(oxidoamino)-3-oxopropyl]isoxazol-5-yl}methyl phosphate] | – | 0.00565 | – | – | – | – | – | – |
| COCCNC(=O)C(C)(OCc1ccc(-c2ccccc2)cc1)C(=O)NO (centres unmarked) [Example 74, 2-(biphenyl-4-ylmethoxy)-N-hydroxy-N′-(2-methoxyethyl)-2-methylmalonamide] | 64 (≈ 172 µM) | 0.0139 | 1 (≈ 2.69 µM) | > 64 | – | – | – | – |
| CC(OCc1ccc(-c2ccccc2)cc1)(C(=O)NO)C(=O)NCCO (centres unmarked) [Example 81, 2-(biphenyl-4-ylmethoxy)-N-hydroxy-N′-(2-hydroxyethyl)-2-methylmalonamide] | 64 (≈ 179 µM) | 0.0261 | 1 (≈ 2.79 µM) | > 64 | – | – | – | – |
| Cn1cc(CCNC(=O)C(C)(OCc2ccc(-c3ccccc3)cc2)C(=O)NO)cn1 (centres unmarked) [Example 73, 2-(biphenyl-4-ylmethoxy)-N-hydroxy-2-methyl-N′-[2-(1-methyl-1H-pyrazol-4-yl)ethyl]malonamide] | > 64 | 0.0156 | 1 (≈ 2.37 µM) | > 64 | – | – | – | – |
| CC(OCc1ccc(-c2ccccc2)cc1)(C(=O)NO)C(=O)NC[C@@H]1CCCO1 (stereo partly drawn) [Example 75, 2-(biphenyl-4-ylmethoxy)-N-hydroxy-2-methyl-N′-[(2S)-tetrahydrofuran-2-ylmethyl]malonamide] | 64 (≈ 161 µM) | 0.0126 | 1 (≈ 2.51 µM) | > 64 | – | – | – | – |
| Cc1n[nH]c(C)c1CNC(=O)C(C)(OCc1ccc(-c2ccccc2)cc1)C(=O)NO (centres unmarked) [Example 78, 2-(biphenyl-4-ylmethoxy)-N-[(3,5-dimethyl-1H-pyrazol-4-yl)methyl]-N′-hydroxy-2-methylmalonamide] | 64 (≈ 151 µM) | 0.0055 | 1 (≈ 2.37 µM) | > 64 | – | – | – | – |
| CN(C)S(=O)(=O)c1ccc(-c2ccc(COC(C)(CO)C(=O)NO)cc2)cc1 (centres unmarked) [Example 61, 2-({4′-[(dimethylamino)sulfonyl]biphenyl-4-yl}methoxy)-N,3-dihydroxy-2-methylpropanamide] | > 64 | 0.0602 | 16 (≈ 39.2 µM) | > 64 | – | – | – | – |
| CC(CO)(OCc1ccc(-c2ccc(C3=NNC(=O)CC3)cc2)cc1)C(=O)NO (centres unmarked) [Example 60, N,3-dihydroxy-2-methyl-2-{[4′-(6-oxo-1,4,5,6-tetrahydropyridazin-3-yl)biphenyl-4-yl]methoxy}propanamide] | > 64 | 0.0105 | 4 (≈ 10.1 µM) | > 64 | – | – | – | – |
| CNC(=O)C(C)(OCc1ccc(-c2ccccc2)cc1)C(=O)NO (centres unmarked) [Example 93, 2-(biphenyl-4-ylmethoxy)-N-hydroxy-N′,2-dimethylmalonamide] | 8 (≈ 24.4 µM) | – | 0.125 (≈ 0.381 µM) | > 64 | > 64 | > 64 | 32 (≈ 97.5 µM) | 64 (≈ 195 µM) |
| Cc1ccc(CNC(=O)C(C)(OCc2ccc(-c3ccccc3)cc2)C(=O)NO)cc1 (centres unmarked) [Example 72, 2-(biphenyl-4-ylmethoxy)-N-hydroxy-2-methyl-N′-(4-methylbenzyl)malonamide] | > 16 | 0.0307 | 4 (≈ 9.56 µM) | > 16 | – | – | – | – |
| COc1cccc(-c2ccc(COC(C)(CO)C(=O)NO)cc2)c1F (centres unmarked) [Example 65, 2-[(2′-fluoro-3′-methoxybiphenyl-4-yl)methoxy]-N,3-dihydroxy-2-methylpropanamide] | 64 (≈ 183 µM) | 0.00579 | 1 (≈ 2.86 µM) | > 64 | – | – | – | – |
| CCN1CC(CNC(=O)C(C)(OCc2ccc(-c3ccccc3)cc2)C(=O)NO)CC1=O (centres unmarked) [Example 82, 2-(biphenyl-4-ylmethoxy)-N-[(1-ethyl-5-oxopyrrolidin-3-yl)methyl]-N′-hydroxy-2-methylmalonamide] | > 64 | 0.0486 | 4 (≈ 9.1 µM) | > 64 | – | – | – | – |
| Cc1ncsc1CCNC(=O)C(C)(OCc1ccc(-c2ccccc2)cc1)C(=O)NO (centres unmarked) [Example 80, 2-(biphenyl-4-ylmethoxy)-N-hydroxy-2-methyl-N′-[2-(4-methyl-1,3-thiazol-5-yl)ethyl]malonamide] | 64 (≈ 146 µM) | 0.00899 | 0.5 (≈ 1.14 µM) | > 64 | – | – | – | – |
| CC(=O)NCCNC(=O)C(C)(OCc1ccc(-c2ccccc2)cc1)C(=O)NO (centres unmarked) [Example 77, N-(2-acetamidoethyl)-2-(biphenyl-4-ylmethoxy)-N′-hydroxy-2-methylmalonamide] | 64 (≈ 160 µM) | 0.00612 | 1 (≈ 2.5 µM) | > 64 | – | – | – | – |
| Cc1nnc(CCNC(=O)C(C)(OCc2ccc(-c3ccccc3)cc2)C(=O)NO)[nH]1 (centres unmarked) [Example 79, 2-(biphenyl-4-ylmethoxy)-N-hydroxy-2-methyl-N′-[2-(5-methyl-4H-1,2,4-triazol-3-yl)ethyl]malonamide] | 64 (≈ 151 µM) | 0.00288 | 1 (≈ 2.36 µM) | > 64 | – | – | – | – |
| CC(CO)(OCc1ccc(-c2ccc(-c3csnn3)cc2)cc1)C(=O)NO (centres unmarked) [Example 59, N,3-dihydroxy-2-methyl-2-{[4′-(1,2,3-thiadiazol-4-yl)biphenyl-4-yl]methoxy}propanamide] | > 64 | 0.00402 | 1 (≈ 2.59 µM) | > 64 | – | – | – | – |
| CC(CO)(OCc1ccc(-c2cccc(F)c2)cc1)C(=O)NO (centres unmarked) [Example 64, 2-[(3′-fluorobiphenyl-4-yl)methoxy]-N,3-dihydroxy-2-methylpropanamide] | > 64 | 0.00757 | 4 (≈ 12.5 µM) | > 64 | – | – | – | – |
| Cc1cc(F)ccc1-c1ccc(COC(C)(CO)C(=O)NO)cc1 (centres unmarked) [Example 63, 2-[(4′-fluoro-2′-methylbiphenyl-4-yl)methoxy]-N,3-dihydroxy-2-methylpropanamide] | > 64 | 0.0174 | 4 (≈ 12 µM) | > 64 | – | – | – | – |
